Results taken from article PMC9189845, “Structure–Activity Relationships of 8-Hydroxyquinoline-Derived Mannich Bases with Tertiary Amines Targeting Multidrug-Resistant Cancer” (Journal of Medicinal Chemistry, 2022).
Like-named read-outs stand apart in the source and are kept apart here.

Key:
[1] = UV-visible spectrophotometric titrations (pKa); format: physicochemical; details: 25 °C; for pKa: water with 0.2% (v/v) DMSO
Method: Spectrophotometrical determination of pKa values was performed as previously reported.[20],[50] An Agilent Cary 8454 diode array spectrophotometer was used to record the UV–visible spectra in the interval 200–800 nm. The path length was between 1 and 5 cm. The spectrophotometric titrations were performed in water with 0.2% (v/v) DMSO on samples containing the compounds at 2–50 μM in the pH range from 2 to 11.5 at 25.0 ± 0.1 °C at an ionic strength of 0.10 M (KCl). Proton dissociation constants and the individual spectra of the species in the different protonation states were calculated with the computer program PSEQUAD.[62]

A431 cells = assay: PrestoBlue viability assay, A431 cells
MES-SA cells = assay: PrestoBlue viability assay, MES-SA cells
A431-B1 cells = assay: PrestoBlue viability assay, A431-B1 (A431-ABCB1) cells
MES-SA/Dx5 cells = assay: PrestoBlue viability assay, MES-SA/Dx5 cells (MDR, P-gp positive); details: for SR_TQ: selectivity ratio MES-SA vs MES-SA/Dx5, with TQ; for SR: selectivity ratio MES-SA vs MES-SA/Dx5, without TQ
[2] = 0.2% DMSO, I = 0.10 M KCl, read-out: pKa (OH), experimentally determined
[3] = read-out: pKa (NpiperaziniumH+ at methyl / N-ethyl), experimentally determined
[4] = quinolinium nitrogen, I = 0.10 M KCl, read-out: pKa (NquinH+), experimentally determined
[5] = Homo sapiens, A-431, 72 h, read-out: IC50 / µM A431, 72 h incubation
[6] = Homo sapiens, A-431, read-out: pIC50 A431, SARM figure (converted)
[7] = Homo sapiens, MES-SA, 72 h, read-out: IC50 / μM MES-SA, absence of TQ, 72 h incubation
[8] = Homo sapiens, MES-SA, read-out: IC50 / μM MES-SA (values in parentheses), presence of 1 μM P-gp inhibitor tariquidar (TQ)
[9] = Homo sapiens, MES-SA, read-out: pIC50 MES-SA, absence of TQ (converted), SARM figure
[10] = Homo sapiens, MES-SA, read-out: pIC50 MES-SA_TQ, presence of 1 μM TQ (converted), SARM figure
[11] = Homo sapiens, MES-SA, read-out: pIC50 value MES-SA+TQ, MES-SA cells, with TQ (converted)
[12] = Homo sapiens, MES-SA, read-out: pIC50 value MES-SA, MES-SA cells, without TQ (converted)
[13] = read-out: IC50 / μM MES-SA, absence of TQ, 72 h incubation
[14] = 72 h, read-out: IC50 / µM A431-B1, 72 h incubation
[15] = read-out: pIC50 A431-B1, SARM figure (converted)
[16] = Homo sapiens, MES-SA/Dx5, 72 h, read-out: IC50 / μM MES-SA/Dx5, absence of TQ, 72 h incubation
[17] = Homo sapiens, MES-SA/Dx5, read-out: IC50 / μM MES-SA/Dx5 (values in parentheses), presence of 1 μM P-gp inhibitor tariquidar (TQ)
[18] = Homo sapiens, MES-SA/Dx5, read-out: pIC50 Dx5, absence of TQ (converted), SARM figure
[19] = Homo sapiens, MES-SA/Dx5, read-out: pIC50 Dx5_TQ, presence of 1 μM TQ (converted), SARM figure
[20] = Homo sapiens, MES-SA/Dx5, read-out: pIC50 value MES-SA/Dx5 + TQ, MES-SA/Dx5 cells, with TQ (converted)
[21] = Homo sapiens, MES-SA/Dx5, read-out: pIC50 value MES-SA/Dx5, MES-SA/Dx5 cells, without TQ (converted)
[22] = read-out: IC50 / μM MES-SA/Dx5, absence of TQ, 72 h incubation
[23] = piperidinium / pyrrolidinium / morpholinium N, read-out: pKa (other; N+amH alkylamine nitrogen), experimentally determined
[24] = read-out: pKa (NpiperaziniumH+ closer to quinoline ring), experimentally determined

pKa [1, 2]	pKa [1, 4]	IC50 (A431 cells; [5]) [µM]	IC50 (A431 cells; [6]) [µM]	IC50 (A431-B1 cells; [14]) [µM]	IC50 (A431-B1 cells; [15]) [µM]	pKa [1, 23]	Compound	IC50 (MES-SA cells; [7]) [µM]	IC50 (MES-SA cells; [8]) [µM]	IC50 (MES-SA cells; [11]) [µM]	IC50 (MES-SA cells; [12]) [µM]	IC50 (MES-SA/Dx5 cells; [16]) [µM]	IC50 (MES-SA/Dx5 cells; [17]) [µM]	IC50 (MES-SA/Dx5 cells; [20]) [µM]	IC50 (MES-SA/Dx5 cells; [21]) [µM]	SR_TQ (MES-SA/Dx5 cells)	SR (MES-SA/Dx5 cells)	other results
8.88 ± 0.03	3.63 ± 0.03						Oc1ccc(CN2CCN(c3ccccc3)CC2)c2cccnc12 [Compound 57]	3.67 ± 0.35			3.63	4.19 ± 0.15			4.17		0.88	pKa [1, 24]: 6.69 ± 0.03
		23.3	23.4	31.2	30.9		Cc1ccccc1N1CCN(Cc2ccc(O)c3ncccc23)CC1 [Compound 58]	5.84 ± 1.02	5.78 ± 0.49	5.75	5.75	3.01 ± 0.58	3.02 ± 0.01		2.95	1.91	1.94	IC50 (MES-SA cells; [9]): 5.75 µM; IC50 (MES-SA cells; [10]): 5.75 µM
9.98 ± 0.03	4.45 ± 0.03					1.7 ± 0.1	Oc1c(CN2CCCc3ccccc32)ccc2cccnc12 [Compound 79]	10.1 ± 0.38			10	13.5 ± 0.7			13.5		0.75	pKa (other; N+amH alkylamine nitrogen), experimentally determined ([1]; piperidinium / pyrrolidinium / morpholinium N, water): 1.69
			41.7		9.55		Oc1c(C(c2ccccn2)N2CCCC2)ccc2cccnc12 (centres unmarked) [Compound 84]	17.2 ± 1.86			17	10.2 ± 0.6			10.2		1.69	
			49		13.2		Oc1c(C(c2ccccn2)N2CCCC2)cc(Cl)c2cccnc12 (centres unmarked) [Compound 90]	12 ± 1.5		5.89	12	6.3 ± 0.15		3.31	6.31	1.78	1.91	
6.46 ± 0.03	1.7 ± 0.1					10.75 ± 0.03	Oc1c(C(c2ccccc2)N2CCCCC2)cc(Cl)c2cccnc12 (centres unmarked) [Compound 97]	14.9 ± 0.18			14.8	14 ± 0.15			13.8		1.06	
			50.1		24		Oc1c(C(c2ccccn2)N2CCCCC2)cc(Cl)c2cccnc12 (centres unmarked) [Compound 98]	31.9 ± 1.55		33.1	31.6	16.6 ± 0.88		13.5	16.6	2.45	1.92	
9.42 ± 0.03	1.89 ± 0.03					5.53 ± 0.03	Oc1c(C(c2ccccn2)N2CCOCC2)cc(Cl)c2cccnc12 (centres unmarked) [Compound 108]	40 ± 9.54			38.9	24.7 ± 4.26			24.5		1.62	pKa ([1]; read-out: pKa (NpyridiniumH+), experimentally determined): < 2
			49		17.4		CN1CCN(C(c2ccccn2)c2cc(Cl)c3cccnc3c2O)CC1 (centres unmarked) [Compound 114]	16 ± 1.31			15.8	13.9 ± 0.46			13.8		1.15	

Further lines, the molecule ahead of its results:

Compound	pKa [1, 2]	pKa [1, 4]	IC50 (A431 cells; [5]) [µM]	IC50 (A431 cells; [6]) [µM]	IC50 (A431-B1 cells; [14]) [µM]	IC50 (A431-B1 cells; [15]) [µM]	pKa [1, 23]	IC50 (MES-SA cells; [7]) [µM]	IC50 (MES-SA cells; [8]) [µM]	IC50 (MES-SA cells; [11]) [µM]	IC50 (MES-SA cells; [12]) [µM]	IC50 (MES-SA/Dx5 cells; [16]) [µM]	IC50 (MES-SA/Dx5 cells; [17]) [µM]	IC50 (MES-SA/Dx5 cells; [20]) [µM]	IC50 (MES-SA/Dx5 cells; [21]) [µM]	SR_TQ (MES-SA/Dx5 cells)	SR (MES-SA/Dx5 cells)	other results
CN1CCN(Cc2cc(Cl)c3cccnc3c2O)CC1 [Compound 9]	9.63 ± 0.03	3.56 ± 0.03	17 ± 1.04	14.5	3.55 ± 0.5	6.31		5.86 ± 0.98	5.14	5.13	5.37	1.59 ± 0.27	4.3	4.27	1.86	1.19	2.84	pKa [1, 3]: 5.61 ± 0.03; IC50 (A431 cells; read-out: IC50 / µM A431, 72 h incubation): 15.9 ± 7.44 µM; IC50 (MES-SA cells; [9]): 5.75 µM; IC50 (MES-SA cells; [10]): 10 µM; IC50 (MES-SA cells; [13]): 5.39 ± 0.47 µM; IC50 (A431-B1 cells; read-out: IC50 / µM A431-B1, 72 h incubation): 6.67 ± 2.4 µM; IC50 (MES-SA/Dx5 cells; [18]): 1.55 µM; IC50 (MES-SA/Dx5 cells; [19]): 6.76 µM; IC50 (MES-SA/Dx5 cells; [22]): 1.9 ± 0.37 µM
COCc1ccc(O)c2ncccc12 [Compound 14]	9.43 ± 0.03	4.64 ± 0.03						2.51 ± 0.13			2.51	1.79 ± 0.09			1.78		1.4	
CCOCc1cc(CN2CCCC2)c(O)c2ncccc12 [Compound 18]	7.89 ± 0.03	2.49 ± 0.03	35.2 ± 11.5	33.1	5.92 ± 2.14	5.62	11.21 ± 0.03	8.61 ± 1.31	8.73 ± 0.54	8.71	8.51	0.93 ± 0.18	5.25 ± 0.18	5.25	0.912	1.66	9.27	
Oc1c(CN2CCCCC2)cc(Cl)c2cccnc12 [Compound 19]	5.8 ± 0.03	< 2	6.67 ± 1.69	6.46	1.69 ± 0.27	1.66	> 11	2.49 ± 0.39	3.38	3.39	2.45	0.29 ± 0.05	2.58	2.57	0.282	1.31	8.71	IC50 (MES-SA cells; [9]): 2.24 µM
Oc1c(CN2CCCCC2)cc(Br)c2cccnc12 [Compound 20, 5-Bromo-7-(piperidin-1-ylmethyl)quinolin-8-ol]	7.16 ± 0.03	1.8 ± 0.1	6.91 ± 1.37	6.76	2.16 ± 0.35	1.58	> 11	1.79 ± 0.16	1.71	1.7	1.78	0.17 ± 0.02	1.32 ± 0.08	1.32	0.166	1.29	10.67	IC50 (MES-SA cells; [13]): 1.78 ± 0.17 µM; IC50 (MES-SA/Dx5 cells; read-out: IC50 / μM MES-SA/Dx5 (values in parentheses), presence of 1 μM P-gp inhibitor tariquidar (TQ)): 1.33 µM; IC50 (MES-SA/Dx5 cells; [22]): 0.16 ± 0.02 µM
CC(C)OCc1cc(CN2CCCCC2)c(O)c2ncccc12 [Compound 24]	7.66 ± 0.03	2.43 ± 0.03	7.53 ± 1	7.41	1.91 ± 0.18	1.91	> 11	6.03 ± 0.29	5.76 ± 0.15	5.75	6.03	0.48 ± 0.04	4.37 ± 0.24	4.37	0.479	1.32	12.57	
Oc1ccc(CN2CCCCC2)c2cccnc12 [Compound 47]	8.45 ± 0.03	3.83 ± 0.03					10.23 ± 0.03	7.45 ± 0.06			7.41	4.36 ± 0.4			4.37		1.71	
CCN1CCN(Cc2ccc(O)c3ncccc23)CC1 [Compound 55]	9.67 ± 0.03	4.94 ± 0.03						17.7 ± 3.14			17.4	21.38 ± 0.1			21.4		0.83	pKa [1, 3]: 5.48 ± 0.03; pKa [1, 24]: 2.6 ± 0.03
Oc1c(C(c2ccncc2)N2CCCCC2)ccc2cccnc12 (centres unmarked) [Compound 96]				35.5		4.57		22.7 ± 0.86			22.9	14 ± 1.5			13.8		1.62	IC50 (MES-SA cells; [9]): 15.5 µM; IC50 (MES-SA cells; [10]): 13.8 µM; IC50 (MES-SA/Dx5 cells; [18]): 8.32 µM; IC50 (MES-SA/Dx5 cells; [19]): 12.6 µM
